Measurements reported in ChEMBL document CHEMBL6078630, “Design, synthesis, and bioactivity investigation of novel cyclic lipopeptide antibiotics targeting top-priority multidrug-resistant gram-negative bacteria” (Eur J Med Chem, 2024).
Converted amounts (≈) assume the structure as drawn. The source made the active and inactive calls. No cut-off for these calls is given here. Bridge positions count the residues as written; N and C are the ends. Square brackets hold non-standard residues; d marks the D form. Peptide text beside a SMILES is read from it. * marks the point of attachment. Heptanoyl(6-Me) = CC(C)CCCCC(=O)*; Dab = NCC[C@H](N)C(=O)O; Dap = NC[C@H](N)C(=O)O

What was measured:
Pseudomonas aeruginosa [1] = experiment: Potentiation of rifampicin induced antibacterial activity against Pseudomonas aeruginosa ATCC 27853 assessed as rifampicin MIC at 0.016 microg/ml incubated 24 hrs by cation adjusted Mueller-Hinton broth based method; assay type: functional; conditions: dose 0.016 µg/ml
Pseudomonas aeruginosa [2] = experiment: Potentiation of rifampicin induced antibacterial activity against Pseudomonas aeruginosa ATCC 27853 assessed as rifampicin MIC at 0.03 microg/ml incubated 24 hrs by cation adjusted Mueller-Hinton broth based method; assay type: functional; conditions: dose 0.03 µg/ml
Escherichia coli [3] = experiment: Antibacterial activity against Escherichia coli ATCC BAA-2523 infected in ICR mouse model assessed as survival rate at 4 mg/kg, iv administered at 1 and 6 hrs post-infection and measured after 7 days relative to control; assay type: functional; conditions: ATCC BAA-2523, 168 h, time 7 day
Pseudomonas aeruginosa [4] = experiment: Potentiation of rifampicin induced antibacterial activity against Pseudomonas aeruginosa ATCC 27853 assessed as rifampicin MIC at 0.06 microg/ml incubated 24 hrs by cation adjusted Mueller-Hinton broth based method; assay type: functional; conditions: dose 0.06 µg/ml
Pseudomonas aeruginosa [5] = experiment: Antibacterial activity against Pseudomonas aeruginosa ATCC 27853 infected in ICR mouse model infected in ICR mouse model assessed as survival rate at 10 mg/kg, iv administered at 1 and 6 hrs post-infection and measured after 7 days relative to control; assay type: functional; conditions: ATCC 27853, 168 h, time 7 day
[6] = Clearance in male Sprague-Dawley rat at 3 mg/kg, iv measured after 24 hrs by LC-MS/MS analysis; assay type: ADME, organism-based; conditions: in vivo
Klebsiella pneumoniae [7] = experiment: Antibacterial activity against carbapenem-resistant Klebsiella pneumoniae clinical isolate ets78 assessed as inhibition of bacterial growth incubated for 24 hrs by CLSI protocol based broth microdilution method; assay type: functional
Acinetobacter baumannii [8] = experiment: Antibacterial activity against carbapenem-resistant Acinetobacter baumannii clinical isolate ets123 assessed as inhibition of bacterial growth incubated for 24 hrs by CLSI protocol based broth microdilution method; assay type: functional
Acinetobacter baumannii [9] = experiment: Antibacterial activity against carbapenem-resistant Acinetobacter baumannii clinical isolate ets171 assessed as inhibition of bacterial growth incubated for 24 hrs by CLSI protocol based broth microdilution method; assay type: functional
Pseudomonas aeruginosa [10] = experiment: Antibacterial activity against Pseudomonas aeruginosa ATCC 27853 assessed as bacterial concentration at 4 to 8 times of MIC measured after 1 hrs by time-kill kinetics assay; assay type: functional, organism-based
Cell membrane = experiment: Disruption of cell membrane integrity in Pseudomonas aeruginosa ATCC 27853 assessed as morphological changes at 16 microg/ml incubated for 2 hrs by scanning electron microscopic analysis; conditions: dose 16.0 µg/ml
Pseudomonas aeruginosa [11] = experiment: Antibacterial activity against Pseudomonas aeruginosa ATCC 27853 assessed as decrease in bacterial concentration at 0.5 to 2 times of MIC measured after 1 hrs by time-kill kinetics assay; assay type: functional, organism-based
Klebsiella pneumoniae [12] = experiment: Antibacterial activity against carbapenem-resistant Klebsiella pneumoniae clinical isolate KPN+19-15 infected in ICR mouse model administered intravenously with compound at 1 and 6 hrs post-infection and measured after 7 days; assay type: functional; conditions: 168 h, route iv, time 7 day
Pseudomonas aeruginosa [13] = experiment: Antibacterial activity against carbapenem-resistant Pseudomonas aeruginosa clinical isolate ets5 assessed as inhibition of bacterial growth incubated for 24 hrs by CLSI protocol based broth microdilution method; assay type: functional
Klebsiella pneumoniae [14] = experiment: Antibacterial activity against carbapenem-resistant Klebsiella pneumoniae ATCC BAA-1705 infected in ICR mouse model assessed as survival rate at 2 mg/kg, iv administered at 1 and 6 hrs post-infection and measured after 7 days relative to control; assay type: functional; conditions: time 7 day
[15] = Protein binding in human plasma assessed as unbound fraction at 0.2 uM incubated for 6 hrs by LC-MS/MS analysis; assay type: ADME, cell-free
Klebsiella pneumoniae [16] = experiment: Antibacterial activity against carbapenem-resistant Klebsiella pneumoniae clinical isolate ets26 assessed as inhibition of bacterial growth incubated for 24 hrs by CLSI protocol based broth microdilution method; assay type: functional
Pseudomonas aeruginosa [17] = experiment: Potentiation of rifampicin induced antibacterial activity against Pseudomonas aeruginosa ATCC 27853 assessed as rifampicin MIC at 0.125 microg/ml incubated 24 hrs by cation adjusted Mueller-Hinton broth based method; assay type: functional; conditions: dose 0.125 µg/ml
Pseudomonas aeruginosa [18] = experiment: Antibacterial activity against Pseudomonas aeruginosa ATCC 27853 assessed as decrease in bacterial concentration at 0.5 to 2 times of MIC measured after 2 hrs by time-kill kinetics assay; assay type: functional, organism-based
Escherichia coli [19] = experiment: Antibacterial activity against carbapenem-resistant Escherichia coli clinical isolate 231109W005 assessed as inhibition of bacterial growth incubated for 24 hrs by CLSI protocol based broth microdilution method; assay type: functional
Acinetobacter baumannii [20] = experiment: Antibacterial activity against carbapenem-resistant Acinetobacter baumannii NCTC13304 infected in ICR mouse model administered intravenously with compound at 1 and 6 hrs post-infection and measured after 7 days; assay type: functional; conditions: NCTC13304, 168 h, route iv, time 7 day
[21] = Toxicity in ICR mouse assessed as adverse effect at 15.4 mg/kg, iv administered as single dose; assay type: organism-based; conditions: in vivo
Pseudomonas aeruginosa [22] = experiment: Antibacterial activity against carbapenem-resistant Pseudomonas aeruginosa clinical isolate ets104 assessed as inhibition of bacterial growth incubated for 24 hrs by CLSI protocol based broth microdilution method; assay type: functional
[23] = Renal cytotoxicity against HK-2 cells incubated for 72 hrs by CCK8 assay; assay type: toxicity, cell-based; conditions: human
Escherichia coli [24] = experiment: Antibacterial activity against Escherichia coli ATCC BAA-2523 assessed as inhibition of bacterial growth incubated for 16 to 20 hrs by CLSI protocol based broth microdilution method; assay type: functional; conditions: time 16-20 hrs
Acinetobacter baumannii [25] = experiment: Antibacterial activity against carbapenem-resistant Acinetobacter baumannii NCTC13304 infected in ICR mouse model assessed as survival rate at 3 mg/kg, iv administered at 1 and 6 hrs post-infection and measured after 7 days relative to control; assay type: functional; conditions: NCTC13304, 168 h, time 7 day
[26] = Nephrotoxicity against Sprague-Dawley rat assessed as increase in CRE level at 4 mg/kg, iv administered for 7 days by fully automated biochemistry analyzer XR200PLUS; assay type: toxicity, organism-based; conditions: in vivo, 168 h, time 7 day
Lipopolysaccharide (LPS) = experiment: Binding affinity to Escherichia coli LPS assessed as dissociation constant by SPR analysis
[27] = MRT in male Sprague-Dawley rat at 3 mg/kg, iv measured after 24 hrs by LC-MS/MS analysis; assay type: ADME, organism-based; conditions: in vivo
Klebsiella pneumoniae [28] = experiment: Antibacterial activity against carbapenem-resistant Klebsiella pneumoniae clinical isolate KPN+19-15 assessed as inhibition of bacterial growth incubated for 16 to 20 hrs by CLSI protocol based broth microdilution method; assay type: functional; conditions: time 16-20 hrs
Klebsiella pneumoniae [29] = experiment: Antibacterial activity against carbapenem-resistant Klebsiella pneumoniae clinical isolate ets80 assessed as inhibition of bacterial growth incubated for 24 hrs by CLSI protocol based broth microdilution method; assay type: functional
Acinetobacter baumannii [30] = experiment: Antibacterial activity against carbapenem-resistant Acinetobacter baumannii clinical isolate ets104 assessed as inhibition of bacterial growth incubated for 24 hrs by CLSI protocol based broth microdilution method; assay type: functional
Klebsiella pneumoniae [31] = experiment: Antibacterial activity against carbapenem-resistant Klebsiella pneumoniae clinical isolate ets74 assessed as inhibition of bacterial growth incubated for 24 hrs by CLSI protocol based broth microdilution method; assay type: functional
Pseudomonas aeruginosa [32] = experiment: Antibacterial activity against carbapenem-resistant Pseudomonas aeruginosa clinical isolate ets15 assessed as inhibition of bacterial growth incubated for 24 hrs by CLSI protocol based broth microdilution method; assay type: functional
Klebsiella pneumoniae [33] = experiment: Antibacterial activity against carbapenem-resistant Klebsiella pneumoniae clinical isolate ets77 assessed as inhibition of bacterial growth incubated for 24 hrs by CLSI protocol based broth microdilution method; assay type: functional

## CC(C)CCCCC(=O)N[C@@H](CCN)C(=O)N[C@H](C(=O)N[C@@H](CN)C(=O)N[C@H]1CCNC(=O)[C@H]([C@@H](C)O)NC(=O)[C@H](CCN)NC(=O)[C@H](CCN)NC(=O)[C@H]([C@@H](C)O)NC(=O)[C@@H](Cc2ccccc2)NC(=O)[C@H](CCN)NC1=O)[C@@H](C)O ({Heptanoyl(6-Me)}-[Dab]T[Dap][Dab][Dab][dF]T[Dab][Dab]T; lactam 4-C)
Pseudomonas aeruginosa [1]
  MIC: 32 µg/mL
Pseudomonas aeruginosa [2]
  MIC: 16 µg/mL
Escherichia coli [3]
  survival at 4 mg/kg: 100%
Pseudomonas aeruginosa [4]
  MIC: 0.25 µg/mL
Pseudomonas aeruginosa [5]
  survival at 10 mg/kg: 100%
[6]
  clearance: 4.16 mL/min/kg
Klebsiella pneumoniae [7]
  MIC: 0.5 µg/mL (≈ 0.43 µM)
Acinetobacter baumannii [8]
  MIC: 0.5 µg/mL (≈ 0.43 µM)
Acinetobacter baumannii [9]
  MIC: 0.5 µg/mL (≈ 0.43 µM)
Pseudomonas aeruginosa [10]
  Activity: Below limit of detection
Cell membrane
  Activity: Active
Pseudomonas aeruginosa [11]
  Activity: Active
Klebsiella pneumoniae [12]
  ED50: 0.38 mg/kg
Pseudomonas aeruginosa [13]
  MIC: 1 µg/mL (≈ 0.86 µM)
Klebsiella pneumoniae [14]
  Activity: 100%
[15]
  fraction unbound at 6 h, 0.2 µM: 0.232
Klebsiella pneumoniae [16]
  MIC: 0.5 µg/mL (≈ 0.43 µM)
Pseudomonas aeruginosa [17]
  MIC: ≤ 0.06 µg/mL
Pseudomonas aeruginosa [18]
  Activity: inactive
Escherichia coli [19]
  MIC: < 0.06 µg/mL
Acinetobacter baumannii [20]
  ED50: 0.83 mg/kg
[21]
  Activity: Non-toxic
Pseudomonas aeruginosa [22]
  MIC: 1 µg/mL (≈ 0.86 µM)
[23]
  IC50 at 72 h: > 500 µg/mL
Escherichia coli [24]
  MIC: ≤ 0.03 µg/mL
Acinetobacter baumannii [25]
  survival at 3 mg/kg: 100%
[26]
  Activity: Non-toxic
Lipopolysaccharide (LPS)
  Kd: 30 nM
[27]
  MRT: 1.17 h
Klebsiella pneumoniae [28]
  MIC: ≤ 0.03 µg/mL
Klebsiella pneumoniae [29]
  MIC: 0.25 µg/mL (≈ 0.215 µM)
Acinetobacter baumannii [30]
  MIC: 0.06 µg/mL (≈ 0.0516 µM)
Klebsiella pneumoniae [31]
  MIC: 0.5 µg/mL (≈ 0.43 µM)
Pseudomonas aeruginosa [32]
  MIC: 0.5 µg/mL (≈ 0.43 µM)
Klebsiella pneumoniae [33]
  MIC: 0.5 µg/mL (≈ 0.43 µM)
